Consider two molecules from patent EP1117659B1, “SUBSTITUTED 3-CYANOQUINOLINES AS PROTEIN TYROSINE KINASES INHIBITORS” (Wyeth Holdings Corporation, priority 1998, dated 2000).

The test system of data set [1] is Human Colon Carcinoma SW620. Kind of data set: In Vivo Inhibition of the Growth of Human Colon Carcinoma SW620 in mice. As to conditions: for S/T = No. Survivors/No. Treated on Day +21 post tumor staging / %T/C Day 7 / %T/C Day 14 / Relative Tumor Growth Day 14 / %T/C Day 21 / Relative Tumor Growth Day 21 / Relative Tumor Growth Day 7: days 1 through 20; for tumor growth was inhibited by: 30 mg/kg i.p. during days 1-20. As for the experimental part:
A unit of 7 X 10^6 cells were injected SC into mice. […] Control animals received vehicle only. Tumor mass was determined every 7 days [(length X width^2)/2] for 28 days post staging.

For another data set, the system named is MDA-MB-435. Kind of data set: Inhibition of Cancer Cell Growth as Measured by Cell Number (Sulforhodamine B). Format: cell-based, Human. As to conditions: Homo sapiens, MDA-MB-435, 48 h, 48 hours exposure. As for the experimental part: (§1) Human tumor cell lines were plated in 96-well plates (250 µl/well, 1-6 x 10^4 cells/ml) in RPMI 1640 medium, containing 5% FBS (Fetal Bovine Serum). […] After 48 hours exposure to test compounds, cells were fixed with trichloroacetic acid, and stained with Sulforhodamine B. After washing with trichloroacetic acid, bound dye was solubilized in 10 mM Tris base and optical density was determined using plate reader. Under conditions of the assay the optical density is proportional to the number of cells in the well. […] The test procedure is described in details by Philip Skehan et. al, J.Natl. Canc. Inst., 82, 1107-1112 (1990). […] Information about some of the cell lines used in these test procedures is available from the American Type Tissue Collection: Cell Lines and Hybridomas, 1994 Reference Guide, 8th Edition.

A further data set deals with SW620. Described as above. Format: cell-based, Human. As to conditions: Homo sapiens, SW-620, 48 h, 48 hours exposure. Here is the method: as §1
Another data set deals with SK-BR3. Described as above. Format: cell-based, Human. The settings on record: Homo sapiens, SK-BR-3, 48 h, 48 hours exposure. As for the experimental part:
as §1

The next data set has as its system A431. The description is as above. The format is cell-based, Human. As to conditions: Homo sapiens, A-431, 48 h, 48 hours exposure. Here is the method:
as §1

Data set [2] addresses T1, Kinase insert Domain containing Receptor (KDR: the catalytic domain of the VEGF receptor) (Homo sapiens, UniProt P35968).
T1 construct: KDR: the catalytic domain of the VEGF receptor
Description: Inhibition of Kinase insert Domain containing Receptor (KDR), radioactive phosphorylation of Glu:Tyr copolymer. The format is biochemical. The settings on record: IC50, substrate phosphorylation. The procedure, abridged:
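KDR catalytic domain phosphorylates poly(Glu:Tyr 4:1) with Mg++ and sodium vanadate at pH 7.2, started by ATP plus 32P- or 33P-ATP tracer. Acid-insoluble radioactivity quantifies substrate phosphorylation. Repeat entries per compound are separate runs.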

Another data set has as its system A2780. Kind of data set: Inhibition of Cancer Cell Growth as Measured by Cell Number (Sulforhodamine B). As to conditions: Homo sapiens, 48 hours exposure. Format: cell-based. As for the experimental part: as §1
The next data set relates to DDP. The description is as above. Format: cell-based. As to conditions: Homo sapiens; 48 hours exposure. Here is the method:
as §1

Data set [3] addresses Epithelial Cell Kinase (ECK) (Homo sapiens, UniProt P29317). Description: Inhibition of Epithelial Cell Kinase (ECK), immobilized biotinylated peptide, HRP anti-phosphotyrosine readout. As to conditions: IC50, substrate phosphorylation. Format: biochemical. In outline: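 Biotinylated peptide substrate immobilized on neutravidin plates, reacted with ECK, test drug, Mg++ and sodium vanadate at pH 7.2; ATP added to start phosphorylation. After washing, phosphopeptide detected with HRP-conjugated anti-phosphotyrosine antibody, HRP activity reflecting substrate phosphorylation. Repeat entries are separate tests of the same compound.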

For data set [4], the target named is T2, epidermal growth factor receptor kinase (EGF-R Kinase, recombinant enzyme; His-tagged cytoplasmic domain of EGFR) (Homo sapiens, UniProt P00533).
T2 construct: EGFR cDNA encoding amino acids 645 - 1186 preceded by Met-Ala-(His)6; Met-Ala-(His)6 (N); made in house; host or cells: Sf9 insect cells, recombinant baculovirus vHcEGFR52
Description: Inhibition of Epidermal Growth Factor Receptor Kinase (EGF-R) using recombinant enzyme, RR-SRC peptide phosphorylation, 33P-ATP. The format is biochemical. The procedure, abridged:
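His-tagged EGFR cytoplasmic domain (aa 645–1186, baculovirus/Sf9) preincubated with compound 10 min on ice, then RR-SRC peptide (80 µM final) and γ-33P-ATP added. Reaction run 90 min at room temperature; peptide-bound 33P counted on P81 filters, background-corrected. IC50 from dose-response of ≥3 concentrations.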

For the next data set, the system named is 3T3. Description: Inhibition of Cancer Cell Growth as Measured by Cell Number (Sulforhodamine B). The format is cell-based. As to conditions: Mus musculus, NIH3T3; 48 hours exposure. As for the experimental part: as §1
The test system of the next data set is 3T3/c-erbb2. The data set is described as above. The settings on record: 48 hours exposure. The format is cell-based. Here is the method:
as §1

In brackets after ≈: the same amount, converted by molar mass. Where only a bound is given, the exact number is not on record here.

T2 sequence (P00533 669-1210): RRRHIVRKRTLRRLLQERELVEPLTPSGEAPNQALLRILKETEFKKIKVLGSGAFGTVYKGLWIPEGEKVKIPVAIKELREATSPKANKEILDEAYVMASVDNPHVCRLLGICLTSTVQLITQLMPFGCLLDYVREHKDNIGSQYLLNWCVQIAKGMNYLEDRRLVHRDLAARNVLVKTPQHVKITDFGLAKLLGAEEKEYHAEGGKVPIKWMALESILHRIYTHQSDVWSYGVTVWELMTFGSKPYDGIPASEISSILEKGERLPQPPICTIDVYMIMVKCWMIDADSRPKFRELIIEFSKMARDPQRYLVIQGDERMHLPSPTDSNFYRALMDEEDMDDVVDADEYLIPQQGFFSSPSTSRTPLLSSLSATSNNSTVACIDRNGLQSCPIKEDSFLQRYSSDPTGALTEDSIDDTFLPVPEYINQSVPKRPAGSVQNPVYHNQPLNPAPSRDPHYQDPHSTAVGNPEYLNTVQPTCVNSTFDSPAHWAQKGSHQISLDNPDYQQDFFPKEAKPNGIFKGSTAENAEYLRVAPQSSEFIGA
T1 sequence (P35968 834-1162 limits assumed): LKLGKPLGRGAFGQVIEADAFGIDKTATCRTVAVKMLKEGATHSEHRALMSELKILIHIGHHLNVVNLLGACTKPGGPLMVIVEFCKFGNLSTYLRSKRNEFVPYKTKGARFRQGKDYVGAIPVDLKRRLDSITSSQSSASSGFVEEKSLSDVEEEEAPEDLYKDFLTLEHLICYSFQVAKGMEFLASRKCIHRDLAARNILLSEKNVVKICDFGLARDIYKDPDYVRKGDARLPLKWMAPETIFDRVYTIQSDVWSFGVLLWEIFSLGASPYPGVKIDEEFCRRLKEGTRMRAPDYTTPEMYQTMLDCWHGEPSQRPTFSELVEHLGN
Chain of Epithelial Cell Kinase (ECK) (P29317 24-976, species assumed): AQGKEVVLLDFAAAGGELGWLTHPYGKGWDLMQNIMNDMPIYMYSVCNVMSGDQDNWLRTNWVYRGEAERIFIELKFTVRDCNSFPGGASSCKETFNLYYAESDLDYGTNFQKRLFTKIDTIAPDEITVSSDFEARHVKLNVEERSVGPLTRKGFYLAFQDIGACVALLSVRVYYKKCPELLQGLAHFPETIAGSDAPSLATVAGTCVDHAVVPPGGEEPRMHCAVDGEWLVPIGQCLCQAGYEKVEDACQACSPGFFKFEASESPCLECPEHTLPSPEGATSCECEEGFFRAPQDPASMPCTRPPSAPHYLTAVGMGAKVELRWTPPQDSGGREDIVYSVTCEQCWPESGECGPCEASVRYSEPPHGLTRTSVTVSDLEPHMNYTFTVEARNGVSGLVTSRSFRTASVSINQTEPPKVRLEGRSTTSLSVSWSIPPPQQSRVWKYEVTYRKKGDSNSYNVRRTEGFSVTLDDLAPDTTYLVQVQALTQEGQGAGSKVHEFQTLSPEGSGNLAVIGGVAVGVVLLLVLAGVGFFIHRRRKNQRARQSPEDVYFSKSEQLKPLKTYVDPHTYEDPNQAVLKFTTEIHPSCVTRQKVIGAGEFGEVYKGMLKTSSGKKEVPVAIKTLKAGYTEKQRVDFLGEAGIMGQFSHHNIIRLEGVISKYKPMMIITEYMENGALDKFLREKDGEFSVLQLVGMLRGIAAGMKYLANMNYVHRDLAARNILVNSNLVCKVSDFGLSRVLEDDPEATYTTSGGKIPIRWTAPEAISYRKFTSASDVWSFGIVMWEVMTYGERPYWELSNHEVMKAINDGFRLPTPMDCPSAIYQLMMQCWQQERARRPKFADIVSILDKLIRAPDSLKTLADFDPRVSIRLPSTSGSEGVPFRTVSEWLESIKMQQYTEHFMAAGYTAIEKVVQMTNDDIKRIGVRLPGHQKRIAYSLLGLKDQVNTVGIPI

With `CCOc1cc2ncc(C#N)c(Nc3ccc4cn[nH]c4c3)c2cc1OCC` [Example 99, 6,7-Diethoxy-4-(1H-indazol-6-ylamino)-quinoline-3-carbonitrile], the “S/T = No. Survivors/No. Treated on Day +21 post tumor staging” value in data set [1] (3 mg/kg/dose IP) is 5/5; in data set [1] (10 mg/kg/dose IP), 5/5; in data set [1] (30 mg/kg/dose IP), 4/5. Moreover, the “%T/C Day 7” value in data set [1] (3 mg/kg/dose IP) is reported as 93%; in [1] (10 mg/kg/dose IP) it was 90%; in data set [1] (30 mg/kg/dose IP), 44%. The “%T/C Day 14” value in data set [1] (3 mg/kg/dose IP) was 108%; in [1] (10 mg/kg/dose IP), 68%; in data set [1] (30 mg/kg/dose IP), 33%. For the same molecule, the “Relative Tumor Growth Day 14” value was 12.53 in data set [1] (3 mg/kg/dose IP), 7.88 in data set [1] (10 mg/kg/dose IP) and 3.85 in data set [1] (30 mg/kg/dose IP). The “%T/C Day 21” value turned out to be 147% in [1] (3 mg/kg/dose IP), 87% in [1] (10 mg/kg/dose IP) and 40% in data set [1] (30 mg/kg/dose IP). The entries for the “Relative Tumor Growth Day 21” value in data set [1] (3 mg/kg/dose IP), in data set [1] (10 mg/kg/dose IP) and in data set [1] (30 mg/kg/dose IP) were 16.47, 9.75 and 4.44, respectively. Also, the “Relative Tumor Growth Day 7” value is 3.69 in data set [1] (10 mg/kg/dose IP) and 1.81 in data set [1] (30 mg/kg/dose IP). The “tumor growth was inhibited by” value in data set [1] (day 7) came out at 56%; in data set [1] (day 14), 67%; in data set [1] (day 21), 60%. Moreover, the 50% inhibitory concentration (IC50) amounted to 0.02 µg/mL (≈ 0.0536 µM) in the data set on MDA-MB-435; 0.033 µg/mL (≈ 0.0884 µM) with SW620; 0.016 µg/mL (≈ 0.0428 µM) in the data set with SK-BR3; 0.025 µg/mL (≈ 0.0669 µM) in the data set on A431; 21.4 µM in data set [2]; 0.032 µg/mL (≈ 0.0857 µM) in the data set with A2780. It took 0.036 µg/mL (≈ 0.0964 µM) to reach half-maximal inhibition with DDP (IC50).

On to `CCOc1cc2ncc(C#N)c(Nc3ccc4cc[nH]c4c3)c2cc1OCC` [Example 101, 6,7-Diethoxy-4-(1H-indol-6-ylamino)-quinoline-3-carbonitrile], for which the half-inhibitory concentration (IC50) in [3] is above 53.7 µM; in the data set on SW620 it was 0.326 µg/mL (≈ 0.875 µM); in the data set with A431 it was 0.216 µg/mL (≈ 0.58 µM); in data set [4] (recombinant enzyme, 90 min at room temperature), above 1 µM; in [2] it was 5.37 µM; with A2780 it was 0.231 µg/mL (≈ 0.62 µM). Moreover, the IC50 in the data set with 3T3 was determined as 1.53 µg/mL (≈ 4.11 µM); in the data set with 3T3/c-erbb2, 0.933 µg/mL (≈ 2.51 µM); in the data set on DDP, 0.313 µg/mL (≈ 0.84 µM). For the same molecule, in data set [4] (read-out: %Inh @ 0.5 µM), the inhibition at 0.5 µM stood at 27%.

The IC50 is the concentration at which inhibition is half-maximal.
